Measurements: PubChem BioAssay AID1963441 (Molecular Pharmacology Branch, DTP, NCI, 2024)
pIC50: −log10 of the molar value.

System: NCI-H1876 complex spheroid growth, % test/control
Assay: Anticancer human tumor NCI-H1876 cell line growth inhibition [Asc];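 also: compound exposure lasted 7 days starting three days after seeding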;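 as to viability, T/C: 100% = DMSO vehicle control wells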
Conditions: for pIC50: curve of first compound; for viability, T/C: stronger effect = lower value
Method in brief: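 Concentration series start at each agent's clinical Cmax, or at 10 microM when none is established, and drop in half-log steps; agents are applied alone or together to complex spheroids built with HUVEC and hMSC.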

[1] = second compound 0.00316 µM, first compound 0.0316 µM
[2] = second compound 0.00316 µM, first compound 0.1 µM
[3] = second compound 0.00316 µM, first compound 0.316 µM
[4] = second compound 0.00316 µM, first compound 1 µM
[5] = second compound 0.00316 µM, first compound 3.16 µM
[6] = second compound 0.00316 µM, first compound 10 µM
[7] = second compound 0.01 µM, first compound 0.0316 µM
[8] = second compound 0.01 µM, first compound 0.1 µM
[9] = second compound 0.01 µM, first compound 0.316 µM
[10] = second compound 0.01 µM, first compound 1 µM
[11] = second compound 0.01 µM, first compound 3.16 µM
[12] = second compound 0.01 µM, first compound 10 µM
[13] = second compound 0.0316 µM, first compound 0.0316 µM
[14] = second compound 0.0316 µM, first compound 0.1 µM
[15] = second compound 0.0316 µM, first compound 0.316 µM
[16] = second compound 0.0316 µM, first compound 1 µM
[17] = second compound 0.0316 µM, first compound 3.16 µM
[18] = second compound 0.0316 µM, first compound 10 µM
[19] = second compound 0.1 µM, first compound 0.0316 µM
[20] = second compound 0.1 µM, first compound 0.1 µM
[21] = second compound 0.1 µM, first compound 0.316 µM
[22] = second compound 0.1 µM, first compound 1 µM
[23] = second compound 0.1 µM, first compound 3.16 µM
[24] = second compound 0.1 µM, first compound 10 µM
[25] = second compound 0.316 µM, first compound 0.0316 µM
[26] = second compound 0.316 µM, first compound 0.1 µM
[27] = second compound 0.316 µM, first compound 0.316 µM
[28] = second compound 0.316 µM, first compound 1 µM
[29] = second compound 0.316 µM, first compound 3.16 µM
[30] = second compound 0.316 µM, first compound 10 µM
[31] = second compound 1 µM, first compound 0.0316 µM
[32] = second compound 1 µM, first compound 0.1 µM
[33] = second compound 1 µM, first compound 0.316 µM
[34] = second compound 1 µM, first compound 1 µM
[35] = second compound 1 µM, first compound 3.16 µM
[36] = second compound 1 µM, first compound 10 µM

Q: What does the source list for `C#Cc1c(F)ccc2cc(O)cc(-c3ncc4c(N5CC6CCC(C5)N6)nc(OCC56CCCN5CC(F)C6)nc4c3F)c12` (stereo unspecified) + CNC(C)C(=O)NC1CN(S(=O)(=O)c2cccc(S(=O)(=O)N3CCC4CCC(C(=O)NC(c5ccccc5)c5ccccc5)N4C(=O)C(NC(=O)C(C)NC)C3)c2)CCC2CCC(C(=O)NC(c3ccccc3)c3ccccc3)N2C1=O?
A: pIC50 (second compound 0.00316 µM): < 5.00; pIC50 (second compound 0.01 µM): < 5.00; pIC50 (second compound 0.0316 µM): < 5.00; pIC50 (second compound 0.1 µM): < 5.00; pIC50 (second compound 0.316 µM): < 5.00; pIC50 (second compound 1 µM): < 5.00; viability, T/C [1]: 101%; viability, T/C [2]: 88.2%; viability, T/C [3]: 103%; viability, T/C [4]: 90.3%; viability, T/C [5]: 93.5%; viability, T/C [6]: 86.7%; viability, T/C [7]: 96.9%; viability, T/C [8]: 92.3%; viability, T/C [9]: 101%; viability, T/C [10]: 92.9%; viability, T/C [11]: 91.8%; viability, T/C [12]: 89.3%; viability, T/C [13]: 105%; viability, T/C [14]: 88.6%; viability, T/C [15]: 101%; viability, T/C [16]: 93.9%; viability, T/C [17]: 102%; viability, T/C [18]: 95.7%; viability, T/C [19]: 106%; viability, T/C [20]: 99.4%; viability, T/C [21]: 104%; viability, T/C [22]: 94.6%; viability, T/C [23]: 94.5%; viability, T/C [24]: 82.8%; viability, T/C [25]: 109%; viability, T/C [26]: 101%; viability, T/C [27]: 89.8%; viability, T/C [28]: 108%; viability, T/C [29]: 107%; viability, T/C [30]: 96%; viability, T/C [31]: 90.3%; viability, T/C [32]: 89.8%; viability, T/C [33]: 98%; viability, T/C [34]: 106%; viability, T/C [35]: 103%; viability, T/C [36]: 92.2%

Q: With `C=C(F)C(=O)N1CCN(c2nc(OCC3CCCN3C)nc3c2CCN(c2cccc4cccc(Cl)c24)C3)CC1CC#N` (stereo unspecified) + CNC(C)C(=O)NC1CN(S(=O)(=O)c2cccc(S(=O)(=O)N3CCC4CCC(C(=O)NC(c5ccccc5)c5ccccc5)N4C(=O)C(NC(=O)C(C)NC)C3)c2)CCC2CCC(C(=O)NC(c3ccccc3)c3ccccc3)N2C1=O as the compound, how does the pIC50 (second compound 0.00316 µM) read?
A: 5.25

Q: What about the pIC50 (second compound 0.01 µM) of the same compound?
A: 5.25

Q: And the pIC50 (second compound 0.0316 µM)?
A: 5.25

Q: What about the pIC50 (second compound 0.1 µM) of the same compound?
A: 5.25

Q: And the pIC50 (second compound 0.316 µM)?
A: 5.24

Q: And the pIC50 (second compound 1 µM)?
A: 5.26

Q: And the viability, T/C [1]?
A: 96.9%

Q: And the viability, T/C [2]?
A: 97.3%

Q: And the viability, T/C [3]?
A: 110%

Q: And the viability, T/C [4]?
A: 89.3%

Q: And the viability, T/C [5]?
A: 99%

Q: What about the viability, T/C [6] of the same compound?
A: 0.33%

Q: What about the viability, T/C [7] of the same compound?
A: 104%

Q: What about the viability, T/C [8] of the same compound?
A: 96.2%

Q: What about the viability, T/C [9] of the same compound?
A: 103%

Q: What about the viability, T/C [10] of the same compound?
A: 103%

Q: And the viability, T/C [11]?
A: 98.4%

Q: And the viability, T/C [12]?
A: 1.04%

Q: What about the viability, T/C [13] of the same compound?
A: 106%

Q: And the viability, T/C [14]?
A: 91.5%

Q: And the viability, T/C [15]?
A: 98.2%

Q: And the viability, T/C [16]?
A: 95.2%

Q: And the viability, T/C [17]?
A: 103%

Q: And the viability, T/C [18]?
A: 0.33%

Q: What about the viability, T/C [19] of the same compound?
A: 98.2%

Q: And the viability, T/C [20]?
A: 95.4%

Q: What about the viability, T/C [21] of the same compound?
A: 102%

Q: What about the viability, T/C [22] of the same compound?
A: 115%

Q: And the viability, T/C [23]?
A: 100%

Q: And the viability, T/C [24]?
A: 0.52%

Q: What about the viability, T/C [25] of the same compound?
A: 106%

Q: What about the viability, T/C [26] of the same compound?
A: 98.7%

Q: And the viability, T/C [27]?
A: 107%

Q: And the viability, T/C [28]?
A: 96.3%

Q: And the viability, T/C [29]?
A: 108%

Q: And the viability, T/C [30]?
A: 0.32%

Q: And the viability, T/C [31]?
A: 96.2%

Q: And the viability, T/C [32]?
A: 85.5%

Q: And the viability, T/C [33]?
A: 92.1%

Q: And the viability, T/C [34]?
A: 102%

Q: What about the viability, T/C [35] of the same compound?
A: 97.2%

Q: And the viability, T/C [36]?
A: 0.37%

Q: `CCN1C(C(=O)NC23CCC(C(=O)O)(CC2)CC3)C(c2cccc(Cl)c2F)C2(C(=O)Nc3cc(Cl)ccc32)C12CCCCC2` (stereo unspecified) + CNC(C)C(=O)NC1CN(S(=O)(=O)c2cccc(S(=O)(=O)N3CCC4CCC(C(=O)NC(c5ccccc5)c5ccccc5)N4C(=O)C(NC(=O)C(C)NC)C3)c2)CCC2CCC(C(=O)NC(c3ccccc3)c3ccccc3)N2C1=O was tested. Which pIC50 (second compound 0.00316 µM) did it give?
A: < 5.52

Q: And the pIC50 (second compound 0.01 µM)?
A: < 5.52

Q: What about the pIC50 (second compound 0.0316 µM) of the same compound?
A: < 5.52

Q: And the pIC50 (second compound 0.1 µM)?
A: < 5.52

Q: And the pIC50 (second compound 0.316 µM)?
A: < 5.52

Q: And the pIC50 (second compound 1 µM)?
A: < 5.52

Q: And the viability, T/C (second compound 0.00316 µM, first compound 0.00949 µM)?
A: 115%

Q: What about the viability, T/C (second compound 0.00316 µM, first compound 0.03 µM) of the same compound?
A: 98%

Q: And the viability, T/C (second compound 0.00316 µM, first compound 0.0949 µM)?
A: 111%

Q: And the viability, T/C (second compound 0.00316 µM, first compound 0.3 µM)?
A: 101%

Q: What about the viability, T/C (second compound 0.00316 µM, first compound 0.949 µM) of the same compound?
A: 123%

Q: What about the viability, T/C (second compound 0.00316 µM, first compound 3 µM) of the same compound?
A: 107%

Q: And the viability, T/C (second compound 0.01 µM, first compound 0.00949 µM)?
A: 110%

Q: And the viability, T/C (second compound 0.01 µM, first compound 0.03 µM)?
A: 99.9%

Q: And the viability, T/C (second compound 0.01 µM, first compound 0.0949 µM)?
A: 104%

Q: What about the viability, T/C (second compound 0.01 µM, first compound 0.3 µM) of the same compound?
A: 101%

Q: What about the viability, T/C (second compound 0.01 µM, first compound 0.949 µM) of the same compound?
A: 120%

Q: And the viability, T/C (second compound 0.01 µM, first compound 3 µM)?
A: 105%

Q: What about the viability, T/C (second compound 0.0316 µM, first compound 0.00949 µM) of the same compound?
A: 105%

Q: What about the viability, T/C (second compound 0.0316 µM, first compound 0.03 µM) of the same compound?
A: 101%

Q: What about the viability, T/C (second compound 0.0316 µM, first compound 0.0949 µM) of the same compound?
A: 115%

Q: What about the viability, T/C (second compound 0.0316 µM, first compound 0.3 µM) of the same compound?
A: 104%

Q: And the viability, T/C (second compound 0.0316 µM, first compound 0.949 µM)?
A: 132%

Q: What about the viability, T/C (second compound 0.0316 µM, first compound 3 µM) of the same compound?
A: 109%

Q: And the viability, T/C (second compound 0.1 µM, first compound 0.00949 µM)?
A: 92.5%

Q: What about the viability, T/C (second compound 0.1 µM, first compound 0.03 µM) of the same compound?
A: 111%

Q: What about the viability, T/C (second compound 0.1 µM, first compound 0.0949 µM) of the same compound?
A: 101%

Q: And the viability, T/C (second compound 0.1 µM, first compound 0.3 µM)?
A: 102%

Q: And the viability, T/C (second compound 0.1 µM, first compound 0.949 µM)?
A: 122%

Q: And the viability, T/C (second compound 0.1 µM, first compound 3 µM)?
A: 103%

Q: What about the viability, T/C (second compound 0.316 µM, first compound 0.00949 µM) of the same compound?
A: 104%

Q: And the viability, T/C (second compound 0.316 µM, first compound 0.03 µM)?
A: 102%

Q: What about the viability, T/C (second compound 0.316 µM, first compound 0.0949 µM) of the same compound?
A: 98.3%

Q: And the viability, T/C (second compound 0.316 µM, first compound 0.3 µM)?
A: 105%

Q: And the viability, T/C (second compound 0.316 µM, first compound 0.949 µM)?
A: 131%

Q: What about the viability, T/C (second compound 0.316 µM, first compound 3 µM) of the same compound?
A: 107%

Q: What about the viability, T/C (second compound 1 µM, first compound 0.00949 µM) of the same compound?
A: 112%

Q: What about the viability, T/C (second compound 1 µM, first compound 0.03 µM) of the same compound?
A: 91.8%

Q: And the viability, T/C (second compound 1 µM, first compound 0.0949 µM)?
A: 109%

Q: What about the viability, T/C (second compound 1 µM, first compound 0.3 µM) of the same compound?
A: 110%

Q: What about the viability, T/C (second compound 1 µM, first compound 0.949 µM) of the same compound?
A: 128%

Q: And the viability, T/C (second compound 1 µM, first compound 3 µM)?
A: 97.9%
